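Assay format: 96-well plates, 48-hour exposure. Here, GI50 denotes the concentration required for 50% inhibition of growth. The concentration for full growth arrest is given as TGI.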
Key:
Experiment in all cases: inhibition of tumour cell growth, NCI panel, 48 h
[1] = tested on: HCT-15 colon
[2] = tested on: OVCAR-5 ovarian
[3] = tested on: HCC-2998 colon
[4] = tested on: DMS 114 small cell lung
[5] = tested on: TK-10 renal
[6] = tested on: ACHN renal
[7] = tested on: CCRF-CEM leukemia
[8] = tested on: BT-549 breast
[9] = tested on: LXFL 529 NSCLC
[10] = tested on: T-47D breast
[11] = tested on: HT29 colon
[12] = tested on: CAKI-1 renal
[13] = tested on: U251 CNS
[14] = tested on: SF-539 CNS
[15] = tested on: SK-MEL-2 melanoma
[16] = tested on: LOX IMVI melanoma
[17] = tested on: RPMI-8226 leukemia
[18] = tested on: M19-MEL melanoma
[19] = tested on: DLD-1 colon
[20] = tested on: MALME-3M melanoma
[21] = tested on: NCI-H226 lung
[22] = tested on: M14 melanoma
[23] = tested on: SK-MEL-28 melanoma
[24] = tested on: SW-620 colon
[25] = tested on: OVCAR-4 ovarian
[26] = tested on: PC-3 prostate
[27] = tested on: A549 NSCLC
[28] = tested on: MDA-MB-231 breast
[29] = tested on: NCI/ADR-RES ovarian
[30] = tested on: SN12C renal
[31] = tested on: HOP-92 NSCLC
[32] = tested on: HOP-62 NSCLC
[33] = tested on: SNB-78 CNS
[34] = tested on: COLO 205 colon
[35] = tested on: NCI-H23 lung
[36] = tested on: HCT-116 colon
[37] = tested on: NCI-H460 lung
[38] = tested on: XF 498 CNS
[39] = tested on: MDA-N
[40] = tested on: SF-268 CNS
[41] = tested on: UACC-62 melanoma
[42] = tested on: UO-31 renal
[43] = tested on: EKVX NSCLC
[44] = tested on: 786-0 renal
[45] = tested on: DU-145 prostate
[46] = tested on: SK-MEL-5 melanoma
[47] = tested on: HS 578T breast
[48] = tested on: NCI-H522 lung
[49] = tested on: SNB-19 CNS
[50] = tested on: MOLT-4 leukemia
[51] = tested on: A498 renal
[52] = tested on: IGROV1 ovarian
[53] = tested on: SR leukemia
[54] = tested on: K-562 leukemia
[55] = tested on: SF-295 CNS
[56] = tested on: DMS 273 small cell lung
[57] = tested on: HL-60(TB) leukemia
[58] = tested on: OVCAR-8 ovarian
[59] = tested on: OVCAR-3 ovarian
[60] = tested on: SK-OV-3 ovarian
[61] = tested on: KM20L2 colon
[62] = tested on: KM12 colon
[63] = tested on: UACC-257 melanoma
[64] = tested on: SNB-75 CNS

With `CC[C@]12C=CCN3CCC4(c5cc([C@@]6(C(=O)OC)CC7CN(CCc8c6[nH]c6ccccc86)C[C@@H]6CCCC[C@H]76)c(OC)cc5N(C)C4[C@](O)(C(=O)OC)C1OC(C)=O)[C@@H]32` (stereo not given in full) the TGI [1] was 12.5 µM, the TGI [2] was 8.83 µM and the TGI [3] was < 0.01 µM. The TGI [4] was < 0.01 µM, the TGI [5] was 21.8 µM and the TGI [6] was 5.53 µM. For the same compound, the TGI [7] was > 37.1 µM, the TGI [8] was 21.2 µM and the TGI [9] was 1.71 µM. The TGI [10] was 38.5 µM, the TGI [11] was < 0.01 µM and the TGI [12] was 16.7 µM. For the same compound, the TGI [13] was < 0.01 µM, the TGI [14] was < 0.01 µM and the TGI [15] was 7.85 µM. The TGI [16] was 12.4 µM, the TGI [17] was 32.1 µM and the TGI [18] was 16.3 µM. The TGI [19] was 13.8 µM, the TGI [20] was 4.95 µM and the TGI [21] was 15.3 µM. For the same compound, the TGI [22] was 3.14 µM, the TGI [23] was 17.1 µM and the TGI [24] was 16 µM. For the same compound, the TGI [25] was 19.3 µM, the TGI [26] was < 0.01 µM and the TGI [27] was 14.6 µM. For the same compound, the TGI [28] was < 0.01 µM, the TGI [29] was 0.0886 µM and the TGI [30] was 18.3 µM. The GI50 [31] was 0.0672 µM, the TGI [31] was 16.9 µM and the TGI [32] was 14.4 µM. For the same compound, the TGI [33] was 19.9 µM, the TGI [34] was < 0.01 µM and the TGI [35] was < 0.01 µM. For the same compound, the TGI [36] was 1.73 µM, the TGI [37] was 0.0425 µM and the TGI [38] was 3.79 µM. The TGI [39] was < 0.01 µM, the TGI [40] was 16.5 µM and the TGI [41] was 17.8 µM. For the same compound, the TGI [42] was 8.58 µM, the TGI [43] was 22.8 µM and the TGI [44] was 12.5 µM. The TGI [45] was 14.8 µM, the TGI [46] was < 0.01 µM and the TGI [47] was < 0.01 µM. For the same compound, the TGI [48] was < 0.01 µM, the TGI [49] was 18.1 µM and the TGI [50] was > 100 µM.

With `COc1cc2oc(-c3ccccc3)cc(=O)c2c(O)c1C` the TGI [1] was > 100 µM, the TGI [2] was > 100 µM and the TGI [3] was > 100 µM. The TGI [51] was > 100 µM, the TGI [4] was > 100 µM and the TGI [5] was > 100 µM. The TGI [6] was > 100 µM, the TGI [7] was > 100 µM and the TGI [9] was > 100 µM. The TGI [11] was > 100 µM, the TGI [12] was > 100 µM and the TGI [52] was > 100 µM. The TGI [13] was > 100 µM, the TGI [53] was > 100 µM and the TGI [14] was > 100 µM. The TGI [15] was > 100 µM, the TGI [16] was > 100 µM and the TGI [54] was > 100 µM. The TGI [55] was > 100 µM, the TGI [17] was > 100 µM and the TGI [18] was > 100 µM. The TGI [56] was > 100 µM, the TGI [19] was > 100 µM and the TGI [20] was > 100 µM. For the same compound, the TGI [57] was > 100 µM, the TGI [21] was > 100 µM and the TGI [58] was > 100 µM. For the same compound, the TGI [22] was > 100 µM, the TGI [23] was > 100 µM and the TGI [24] was > 100 µM. The TGI [25] was > 100 µM, the TGI [27] was > 100 µM and the TGI [30] was > 100 µM. For the same compound, the TGI [31] was > 100 µM, the TGI [32] was > 100 µM and the TGI [33] was > 100 µM. The TGI [34] was > 100 µM, the TGI [35] was > 100 µM and the TGI [59] was > 100 µM. For the same compound, the TGI [36] was > 100 µM, the TGI [37] was > 100 µM and the TGI [60] was > 100 µM. The TGI [40] was > 100 µM, the TGI [41] was > 100 µM and the TGI [61] was > 100 µM. For the same compound, the TGI [42] was > 100 µM, the TGI [43] was > 100 µM and the TGI [44] was > 100 µM. For the same compound, the TGI [46] was > 100 µM, the TGI [48] was > 100 µM and the TGI [62] was > 100 µM. For the same compound, the TGI [63] was > 100 µM, the TGI [64] was > 100 µM and the TGI [50] was > 100 µM.
